According to patent US8933224B2, “Triazine derivatives” (Pfizer Inc., priority 2013, dated 2015):

Target: rat PDE10 enzyme (Rattus norvegicus (Rat), UniProt Q9QYJ6)
Test: PDE10 scintillation proximity assay (SPA), inhibition of rat PDE10 enzyme activity
Format: biochemical
Conditions: geometric mean of 2-4 determinations unless otherwise indicated (b: ≧5 determinations; c: single determination)
Description: PDE10 activity was measured using a scintillation assay (SPA-based method) similar to that previously described by Seeger, T. F. et al., Brain Research 985 (2003) 113-126. The compounds' relative activity as PDE10 inhibitors was investigated by assaying a fixed amount of enzyme in the presence of the test compound and low substrate concentration (cAMP) such that an IC50 could be determined. […] The assay is performed in a 384-well format with 50 μL assay buffer (50 mM TRIS pH 7.5; 1.3 mM MgCl2; 0.01% Brij) containing enough PDE10 to convert ˜20% of 20 nM ^3H-cAMP, and a range of inhibitors. Reactions are incubated for 30 minutes at 25° C. The addition of 20 μL of 8 mg/ml yttrium silicate SPA beads (PerkinElmer) stops the reaction. The plates are sealed (TopSeal, PerkinElmer) and the beads are allowed to settle for 8 hrs, after which they are read on the Trilux Microbeta overnight. ^1Rat enzyme preparation:^2Human enzyme preparation:
The recombinant Bacmid was isolated and used to transfect sf9 insect cells to generate a viral stock. To generate cell paste for purification, sf21 cells were infected with the virus stock and cells were harvested 72 hours after infection as described in Seeger, T. F. et al., Brain Research 985 (2003) 113-126. Insect cell paste was lysed and after centrifugation, the supernatant was chromatographed on Ni-NTA agarose (Qiagen) followed by Mono Q (GE Healthcare Life Sciences) as described in Seeger, T. F. et al., Brain Research 985 (2003) 113-126.

rat PDE10 enzyme, sequence (Q9QYJ6 24-794): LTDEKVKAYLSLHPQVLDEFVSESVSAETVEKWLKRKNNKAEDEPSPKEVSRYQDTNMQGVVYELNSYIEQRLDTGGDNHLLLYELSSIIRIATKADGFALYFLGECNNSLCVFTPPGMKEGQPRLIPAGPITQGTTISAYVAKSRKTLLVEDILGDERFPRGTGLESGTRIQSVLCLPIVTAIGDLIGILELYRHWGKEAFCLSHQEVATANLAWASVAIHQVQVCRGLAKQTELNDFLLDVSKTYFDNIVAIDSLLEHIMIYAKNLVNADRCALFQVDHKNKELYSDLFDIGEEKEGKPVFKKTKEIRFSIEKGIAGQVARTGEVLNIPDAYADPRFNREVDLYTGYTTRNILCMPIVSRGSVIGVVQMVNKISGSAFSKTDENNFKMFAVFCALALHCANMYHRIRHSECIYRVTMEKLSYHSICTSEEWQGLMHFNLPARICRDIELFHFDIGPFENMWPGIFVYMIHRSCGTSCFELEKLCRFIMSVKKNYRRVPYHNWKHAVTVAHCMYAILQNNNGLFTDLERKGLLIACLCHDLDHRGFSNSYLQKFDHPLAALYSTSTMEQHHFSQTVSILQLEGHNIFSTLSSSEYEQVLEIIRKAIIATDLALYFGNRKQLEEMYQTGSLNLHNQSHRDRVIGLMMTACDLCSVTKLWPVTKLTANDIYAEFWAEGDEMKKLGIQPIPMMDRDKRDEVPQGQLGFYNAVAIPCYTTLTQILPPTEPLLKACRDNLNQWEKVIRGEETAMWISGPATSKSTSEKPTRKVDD

Row | SMILES | IC50 [nM]
1 | Cc1nc(-c2ccc(F)cc2Cl)c2c(N3CCc4nc(C5CC5)ncc4C3)ncnn12 [Example 7, 6-[5-(2-Chloro-4-fluorophenyl)-7-methylimidazo[5,1-f][1,2,4]triazin-4-yl]-2-cyclopropyl-5,6,7,8-tetrahydropyrido[4,3-d]pyrimidine] | 8.44
2 | Cc1ccccc1-c1nc(C)n2ncnc(N3CCc4c(c(C(C)C)nn4C)C3)c12 [Example 10, 4-(3-Isopropyl-1-methyl-1,4,6,7-tetrahydro-5H-pyrazolo[4,3-c]pyridin-5-yl)-7-methyl-5-(2-methylphenyl)imidazo[5,1-f][1,2,4]triazine] | 0.56
3 | Cc1nc(C2CCCO2)c2c(N3CCc4nc(C5CC5)ncc4C3)ncnn12 (stereo not drawn) [Example 22, 2-cyclopropyl-6-[7-methyl-5-(tetrahydrofuran-2-yl)imidazo[5,1-f][1,2,4]triazin-4-yl]-5,6,7,8-tetrahydropyrido[4,3-d]pyrimidine] | 5.2
4 | Cc1ccccc1-c1nc(C)n2ncnc(N3CCc4nc(C5CC5)ncc4C3)c12 [Example 24, 2-cyclopropyl-6-[7-methyl-5-(2-methylphenyl)imidazo[5,1-f][1,2,4]triazin-4-yl]-5,6,7,8-tetrahydropyrido[4,3-d]pyrimidine] | < 3.29
5 | Cc1nc([C@@H]2CCOC2)c2c(N3CCc4noc(C(C)C)c4C3)ncnn12 [Example 30, 7-methyl-4[3-(propan-2-yl)-6,7-dihydro[1,2]oxazolo[4,3-c]pyridin-5(4H)-yl]-5-[(3S)-tetrahydrofuran-3-yl]imidazo[5,1-f][1,2,4]triazine] | 3.52
6 | CCc1onc2c1CN(c1ncnn3c(C)nc([C@@H]4CCOC4)c13)CC2 [Example 31] | 3.73
7 | Cc1nc2c(c(OC(F)F)n1)CN(c1ncnn3c(C)nc([C@@H]4CCOC4)c13)CC2 [Example 36, 4-(difluoromethoxy)-2-methyl-6-{7-methyl-5-[(3S)-tetrahydrofuran-3-yl]imidazo[5,1-f][1,2,4]triazin-4-yl}-5,6,7,8-tetrahydropyrido[4,3-d]pyrimidine] | 0.44
8 | COc1nc(C2CC2)nc2c1CN(c1ncnn3c(C)nc([C@@H]4CCOC4)c13)CC2 [Example 39, 2-cyclopropyl-4-methoxy-6-{7-methyl-5-[(3S)-tetrahydrofuran-3-yl]imidazo[5,1-f][1,2,4]triazin-4-yl}-5,6,7,8-tetrahydropyrido[4,3-d]pyrimidine] | 0.193
9 | Cc1nc(C2CC2)nc2c1CN(c1ncnn3c(C)nc([C@@H]4CCOC4)c13)CC2 [Example 41, 2-cyclopropyl-4-methyl-6-{7-methyl-5-[(3S)-tetrahydrofuran-3-yl]imidazo[5,1-f][1,2,4]triazin-4-yl}-5,6,7,8-tetrahydropyrido[4,3-d]pyrimidine] | < 0.175
10 | COc1cc2c(cc1OC)CN(c1ncnn3c(C)nc(-c4ccccc4F)c13)CC2 [Example 42, 2-[5-(2-fluorophenyl)-7-methylimidazo[5,1-f][1,2,4]triazin-4-yl]-6,7-dimethoxy-1,2,3,4-tetrahydroisoquinoline] | < 3.23
11 | Cc1nc(-c2ccccc2F)c2c(N3CCc4c(c(C(C)C)nn4C)C3)ncnn12 [Example 43, 5-(2-fluorophenyl)-4-(3-isopropyl-1-methyl-1,4,6,7-tetrahydro-5H-pyrazolo[4,3-c]pyridin-5-yl)-7-methylimidazo[5,1-f][1,2,4]triazine] | 0.465
12 | Cc1nc(C2CCCO2)c2c(N3CCc4c(c(C(C)C)nn4C)C3)ncnn12 (stereo not drawn) [Example 45, 4-(3-isopropyl-1-methyl-1,4,6,7-tetrahydro-5H-pyrazolo[4,3-c]pyridin-5-yl)-7-methyl-5-(tetrahydrofuran-2-yl)imidazo[5,1-f][1,2,4]triazine] | 3.84
13 | Cc1nc(-c2ccccc2F)c2c(N3CCc4noc(C5CC5)c4C3)ncnn12 [Example 46, 4-(3-cyclopropyl-6,7-dihydroisoxazolo[4,3-c]pyridin-5(4H)-yl)-5-(2-fluorophenyl)-7-methylimidazo[5,1-f][1,2,4]triazine] | 1.98
14 | CCc1nn(C)c2c1CN(c1ncnn3c(C)nc(CC(C)C)c13)CC2 [Example 48, 4-(3-ethyl-1-methyl-1,4,6,7-tetrahydro-5H-pyrazolo[4,3-c]pyridin-5-yl)-5-isobutyl-7-methylimidazo[5,1-f][1,2,4]triazine] | < 1
15 | Cc1nc([C@@H]2CCOC2)c2c(N3CCc4nc(C5CC5)nc(O)c4C3)ncnn12 [Example 52, 2-cyclopropyl-6-{7-methyl-5-[(3S)-tetrahydrofuran-3-yl]imidazo[5,1-f][1,2,4]triazin-4-yl}-5,6,7,8-tetrahydropyrido[4,3-d]pyrimidin-4-ol] | 0.101
16 | Cc1nc(-c2ccccc2F)c2c(N3CCc4nc(C5CC5)oc4C3)ncnn12 [Example 53, 4-(2-cyclopropyl-6,7-dihydro[1,3]oxazolo[5,4-c]pyridin-5(4H)-yl)-5-(2-fluorophenyl)-7-methylimidazo[5,1-f][1,2,4]triazine] | 1.79
17 | Cc1nc(CC(C)C)c2c(N3CCc4nc(C5CC5)oc4C3)ncnn12 [Example 54, 4-(2-cyclopropyl-6,7-dihydro[1,3]oxazolo[5,4-c]pyridin-5(4H)-yl)-5-isobutyl-7-methylimidazo[5,1-f][1,2,4]triazine] | 4.52
18 | Cc1nc(CC(C)C)c2c(N3CCc4nc(C5CC5)ncc4C3)ncnn12 [Example 55, 2-cyclopropyl-6-(5-isobutyl-7-methylimidazo[5,1-f][1,2,4]triazin-4-yl)-5,6,7,8-tetrahydropyrido[4,3-d]pyrimidine] | 2.19
19 | COc1ccc2c(c1OC)CN(c1ncnn3c(C)nc(C4CCOCC4)c13)CC2 [Example 60, 7,8-dimethoxy-2-[7-methyl-5-(tetrahydro-2H-pyran-4-yl)imidazo[5,1-f][1,2,4]triazin-4-yl]-1,2,3,4-tetrahydroisoquinoline] | 1.35

Next, values leading:

Row | IC50 [nM] | SMILES
20 | 1.62 | COc1cc2c(cc1OC)CN(c1ncnn3c(C)nc([C@H]4CCOC4)c13)CC2 [Example 14, 6,7-dimethoxy-2-{7-methyl-5-[(3R)-tetrahydrofuran-3-yl]imidazo[5,1-f][1,2,4]triazin-4-yl}-1,2,3,4-tetrahydroisoquinoline]
21 | 0.716 | COc1cc2c(cc1OC)CN(c1ncnn3c(C)nc([C@@H]4CCOC4)c13)CC2 [Example 15, 6,7-dimethoxy-2-{7-methyl-5-[(3S)-tetrahydrofuran-3-yl]imidazo[5,1-f][1,2,4]triazin-4-yl}-1,2,3,4-tetrahydroisoquinoline]
22 | 6.55 | Cc1nc([C@@H]2CCOC2)c2c(N3CCc4nc(C5CC5)ncc4C3)ncnn12 [Example 16, 2-cyclopropyl-6-{7-methyl-5-[(3S)-tetrahydrofuran-3-yl]imidazo{5,1-f][1,2,4]triazin-4-yl}-5,6,7,8-tetrahydropyrido[4,3-d]pyrimidine]
23 | < 0.24 | COc1ccc2c(c1OC)CN(c1ncnn3c(C)nc([C@@H]4CCOC4)c13)CC2 [Example 17, 7,8-dimethoxy-2-{7-methyl-5-[(3S)-tetrahydrofuran-3-yl]imidazo[5,1-f][1,2,4]triazin-4-yl}-1,2,3,4-tetrahydroisoquinoline]
24 | < 2.26 | Cc1nc([C@H]2CCOC2)c2c(N3CCc4nn(C5CC5)cc4C3)ncnn12 [Example 26, 4-(2-cyclopropyl-2,4,6,7-tetrahydro-5H-pyrazolo[4,3-c]pyridin-5-yl)-7-methyl-5-[(3R)-tetrahydrofuran-3-yl]imidazo[5,1-f][1,2,4]triazine]
25 | 3.74 | CCc1noc2c1CN(c1ncnn3c(C)nc([C@@H]4CCOC4)c13)CC2 [Example 32]
26 | 23.3 | Cc1onc2c1CN(c1ncnn3c(C)nc([C@@H]4CCOC4)c13)CC2 [Example 33, 7-methyl-4-(3-methyl-6,7-dihydro[1,2]oxazolo[4,3-c]pyridin-5(4H)-yl)-5-[(3S)-tetrahydrofuran-3-yl]imidazo[5,1-f][1,2,4]triazine]
27 | 16.5 | Cc1noc2c1CN(c1ncnn3c(C)nc([C@@H]4CCOC4)c13)CC2 [Example 34, 7-methyl-4-(3-methyl-6,7-dihydro[1,2]oxazolo[4,5-c]pyridin-5(4H)-yl)-5-[(3S)-tetrahydrofuran-3-yl]imidazo[5,1-f][1,2,4]triazine]
28 | 13.5 | Cc1nc([C@H]2CCOC2)c2c(N3CCc4cc(Cl)c(Cl)cc4C3)ncnn12 [Example 51, 6,7-dichloro-2-{7-methyl-5-[(3R)-tetrahydrofuran-3-yl]imidazo[5,1-f][1,2,4]triazin-4-yl}-1,2,3,4-tetrahydroisoquinoline]
29 | 5.34 | Cc1nc([C@H]2CCOC2)c2c(N3CCc4nc(C5CC5)ncc4C3)ncnn12 [Example 56, 2-cyclopropyl-6-{7-methyl-5-[(3R)-tetrahydrofuran-3-yl]imidazo[5,1-f][1,2,4]triazin-4-yl}-5,6,7,8-tetrahydropyrido[4,3-d]pyrimidine]
30 | 3.1 | COc1cc2c(cc1OC)CN(c1ncnn3c(C)nc(C4CCOCC4)c13)CC2 [Example 59, 6,7-dimethoxy-2-[7-methyl-5-(tetrahydro-2H-pyran-4-yl)imidazo[5,1-f][1,2,4]triazin-4-yl]-1,2,3,4-tetrahydroisoquinoline]
